In patent US20230201342A1, “USE OF LENVATINIB PLUS ANTI-PD-1 MONOCLONAL ANTIBODY IN PREPARATION OF ANTI-HEPATOMA DRUG” (Guangzhou X Cell Therapy Biomedical Tech Co., Ltd, priority 2021, published 2023):

What was measured:
[1] = tested on: CD31, NG2, CD8 in Hepa1-6 tumor tissue; experiment: immunohistochemistry of vascular markers and CD8-positive T cell infiltration in tumor tissue (Example 1); assay type: in vivo, mouse
Procedure: (§1) (1) Separately, 1×10^6 mouse hepatoma cells (Hepa1-6) were implanted into the subcutaneous stratum of the armpits of 20 […] mice aged 3-4 weeks. The mice were randomized into four groups: a blank control group, a 3 mg/kg/day lenvatinib group, a 10 mg/kg/day lenvatinib group, and a 30 mg/kg/day lenvatinib group. (2) When the size of the subcutaneous tumor reached 100-200 mm^3: each mouse of the 3 mg/kg/day lenvatinib group was orally administered with 3 mg/kg/day lenvatinib by gastric gavage once a day; each mouse of the 10 mg/kg/day lenvatinib group was orally administered with 10 mg/kg/day lenvatinib by gastric gavage once a day; and each mouse of the 30 mg/kg/day lenvatinib group was orally administered with 30 mg/kg/day lenvatinib by gastric gavage once a day. According to the existing literature, 30 mg/kg was a routine dose of lenvatinib (Selleck) for laboratory mice. (4) After 3 weeks, the mice were sacrificed, tumor tissues were resected, a part of fresh tumor tissue was separated and ground into a single cell suspension, and the proportion of positive cells labeled with CD45 and CD8 was detected by flow cytometry; meanwhile, the other part of tumor tissue was fixed and embedded, and vascular markers (CD31, α-SMA, and VEGFR2) and CD8-positive T cell infiltration were detected by immunohistochemistry.

[2] = tested on: CD8-positive T cells in Hepa1-6 tumor tissue; experiment: flow cytometry of CD45/CD8-positive cells in resected tumor tissue (Example 1); assay type: in vivo, mouse; conditions: 10 mg/kg/day, after 3 weeks
Procedure: as §1

[3] = tested on: mouse hepatoma cells (Hepa1-6) xenograft; experiment: subcutaneous tumorigenicity assay, tumor size (Example 1); assay type: in vivo
Procedure: 3. Detection of the effects of different doses of lenvatinib on hepatoma xenograft by subcutaneous tumorigenicity assay of immunocompetent C57B/L mice. (1) Separately, 1×10^6 mouse hepatoma cells (Hepa1-6) were implanted into the subcutaneous stratum of the armpits of 20 […] mice aged 3-4 weeks. The mice were randomized into four groups: a blank control group, a 3 mg/kg/day lenvatinib group, a 10 mg/kg/day lenvatinib group, and a 30 mg/kg/day lenvatinib group. (2) When the size of the subcutaneous tumor reached 100-200 mm^3: each mouse of the 3 mg/kg/day lenvatinib group was orally administered with 3 mg/kg/day lenvatinib by gastric gavage once a day; each mouse of the 10 mg/kg/day lenvatinib group was orally administered with 10 mg/kg/day lenvatinib by gastric gavage once a day; and each mouse of the 30 mg/kg/day lenvatinib group was orally administered with 30 mg/kg/day lenvatinib by gastric gavage once a day. According to the existing literature, 30 mg/kg was a routine dose of lenvatinib (Selleck) for laboratory mice. (3) The tumor size was measured every two days, and the difference in tumor size was compared among groups.

[4] = tested on: mouse hepatoma cells (Hepa1-6) xenograft; experiment: subcutaneous tumorigenicity assay, lenvatinib plus anti-PD-1 monoclonal antibody (Example 2); assay type: in vivo; conditions: for growth of hepatoma xenograft: oral gavage, 3 weeks
Excerpt: Detection of the effects of different doses of lenvatinib plus anti-PD-1 monoclonal antibody on hepatoma xenograft by subcutaneous tumorigenicity assay of immunocompetent C57B/L mice.
(1) Separately, 1×10^6 mouse hepatoma cells (Hepa1-6) were implanted into the subcutaneous stratum of the armpits of 24 C57B/L mice aged 3-4 weeks. The mice were randomized into six groups: The mice were randomized into six groups: a blank control group, an anti-PD-1 monoclonal antibody alone group, a low-dose lenvatinib group, a high-dose lenvatinib group, a low-dose lenvatinib+anti-PD-1 monoclonal antibody group, and a high-dose lenvatinib+anti-PD-1 monoclonal antibody group.
(2) When the size of the subcutaneous tumor reached 100-200 mm^3: each mouse of the anti-PD-1 monoclonal antibody alone group was intraperitoneally administered with 200 μg of anti-PD-1 monoclonal antibody every three days; each mouse of the low-dose lenvatinib group was orally administered with 10 mg/kg/day lenvatinib by gastric gavage once a day; each mouse of the high-dose lenvatinib group was orally administered with 30 mg/kg/day lenvatinib by gastric gavage once a day; each mouse of the low-dose lenvatinib group+anti-PD-1 monoclonal antibody was orally administered with 10 mg/kg/day lenvatinib by gastric gavage once a day and intraperitoneally administered with 200 μg of anti-PD-1 monoclonal antibody every three days; and each mouse of the high-dose lenvatinib group+anti-PD-1 monoclonal antibody was orally administered with 30 mg/kg/day lenvatinib by gastric gavage once a day and intraperitoneally administered with 200 μg of anti-PD-1 monoclonal antibody every three days.
(4) After 3 weeks, the mice were sacrificed, and data statistics and reduction were conducted.

COc1cc2nccc(Oc3ccc(NC(=O)NC4CC4)c(Cl)c3)c2cc1C(N)=O [lenvatinib]
infiltrating CD8-positive T cells in the tumor tissue ([1]; 10 mg/kg/day): significantly increased | expression of peripheral cell marker molecule NG2 ([1]; 10 mg/kg/day only): upregulation | vascular normalization in tumor tissue ([1]; 10 mg/kg/day only): significantly improve vascular normalization | microvessel density (CD31) in hepatoma tissue ([1]; all three doses 3, 10, 30 mg/kg/day): significantly reduce | percentage of CD8-positive T cells in the tumor tissue [2]: significantly increased | difference in tumor growth among the three dose groups ([3]; 3 vs 10 vs 30 mg/kg/day lenvatinib): no significant difference | growth of hepatoma xenograft (tumor size) ([3]; all three doses 3, 10, 30 mg/kg/day, oral gavage once a day, 3 weeks): inhibit the growth of hepatoma xenograft | difference in tumor growth between low-dose and high-dose groups ([4]; 10 vs 30 mg/kg/day lenvatinib alone): no significant difference | growth of hepatoma xenograft ([4]; high-dose lenvatinib 30 mg/kg/day): inhibit the growth of hepatoma xenograft | growth of hepatoma xenograft ([4]; low-dose lenvatinib 10 mg/kg/day): inhibit the growth of hepatoma xenograft
